Data taken from patent US9174973B2, “Crystalline forms of azilsartan and preparation and uses thereof” (SUNSHINE LAKE PHARMA CO., LTD., priority 2011, dated 2015).

Columns and labels:
Format in all cases: physicochemical
[1] = Light Stability of crystalline form A; conditions: light 4500+/−500 Lux
Experimental: (§1) A layer of crystalline form A having a thickness of less than 5 mm was place in a flat weighing bottle. […] Samples were taken out at 6 days, 11 days and 16 days and examined for purity by HPLC, appearance and crystalline form. The conditions for the HPLC measurements are as shown below. • Instrument: Agilent 1200HPLC • Column: Agilent Eclipse XDB-C18 4.6*150 mm, 5 μm • Detection wavelength: 254 nm • Mobile phase: A phase 10 mM ammonium acetate (pH=3.5) and B phase acetonitrile [table]

[2] = Thermal Stability of crystalline form A
Experimental: as §1

[3] = Humidity Stability of crystalline form A; conditions: 25° C., RH 90%+/−5%
Experimental: A layer of crystalline form A having a thickness of less than 5 mm was place in a flat weighing bottle. […] The conditions for the HPLC measurements are as shown below. • Instrument: Agilent 1200HPLC • Column: Agilent Eclipse XDB-C18 4.6*150 mm, 5 μm • Detection wavelength: 254 nm • Mobile phase: A phase 10 mM ammonium acetate (pH=3.5) and B phase acetonitrile [table]

[4] = solubility test of crystalline forms in 0.1M HCl (Chinese Pharmacopoeia 2010); conditions: 300 mg in 6 ml 0.1M HCl, 25° C.±2° C.
Experimental: The solubility of crystalline forms A, B, C and D was measured in accordance with the solubility test described in “Chinese Pharmacopoeia 2010”, Topic and Requirement 15. A crystalline form of azilsartan was grinded into powder. The powder (300 mg) was added to 6 ml of 0.1M HCl as the solvent at 25° C.±2° C. […] The total test time was 30 minutes. The solid was deemed as dissolved when no solid was detected in the mixture by human eyes. The solubility data of crystalline forms A, B, C and D of azilsartan are as shown below.

[5] = 0 day (initial sample, before stress)

## CCOc1nc2cccc(C(=O)O)c2n1Cc1ccc(-c2ccccc2-c2noc(=O)[nH]2)cc1 [Form A]
[1]; 6 days
  Appearance: Light yellow
  Crystalline form: Form A
  RT* (min.) 2.39 (HPLC peak): 0.01%
  RT* (min.) 2.89 (HPLC peak): 0.09%
  RT* (min.) 3.9 (HPLC peak): 0.32%
  RT* (min.) 5.79 (HPLC peak): — (“—” refers to the peak area is less than 3000 or there is no peak)
  RT* (min.) 13.2 (azilsartan peak, purity by HPLC): 99.45%
  RT* (min.) 20.55 (HPLC peak): — (“—” refers to the peak area is less than 3000 or there is no peak)
  RT* (min.) 22.8 (HPLC peak): 0.04%
  RT* (min.) 23.6 (HPLC peak): 0.01%
  RT* (min.) 26.96 (HPLC peak): — (“—” refers to the peak area is less than 3000 or there is no peak)
  RT* (min.) 27.5 (HPLC peak): 0.06%
  RT* (min.) 28.81 (HPLC peak): — (“—” refers to the peak area is less than 3000 or there is no peak)
  RT* (min.) 30.66 (HPLC peak): 0.02%
[1]; 11 days
  Appearance: Light yellow
  Crystalline form: Form A
  RT* (min.) 2.39 (HPLC peak): 0.04%
  RT* (min.) 2.89 (HPLC peak): 0.14%
  RT* (min.) 3.9 (HPLC peak): 0.61%
  RT* (min.) 5.79 (HPLC peak): 0.02
  RT* (min.) 13.2 (azilsartan peak, purity by HPLC): 98.71%
  RT* (min.) 20.55 (HPLC peak): 0.07%
  RT* (min.) 22.8 (HPLC peak): 0.06%
  RT* (min.) 23.6 (HPLC peak): 0.03%
  RT* (min.) 26.96 (HPLC peak): 0.01%
  RT* (min.) 27.5 (HPLC peak): 0.29%
  RT* (min.) 28.81 (HPLC peak): 0.01%
  RT* (min.) 30.66 (HPLC peak): 0.03%
[1]; 16 days
  Appearance: Light yellow
  Crystalline form: Form A
  RT* (min.) 2.39 (HPLC peak): 0.05%
  RT* (min.) 2.89 (HPLC peak): 0.22%
  RT* (min.) 3.9 (HPLC peak): 0.34%
  RT* (min.) 5.79 (HPLC peak): — (“—” refers to the peak area is less than 3000 or there is no peak)
  RT* (min.) 13.2 (azilsartan peak, purity by HPLC): 99.24%
  RT* (min.) 20.55 (HPLC peak): — (“—” refers to the peak area is less than 3000 or there is no peak)
  RT* (min.) 22.8 (HPLC peak): 0.04%
  RT* (min.) 23.6 (HPLC peak): 0.01%
  RT* (min.) 26.96 (HPLC peak): — (“—” refers to the peak area is less than 3000 or there is no peak)
  RT* (min.) 27.5 (HPLC peak): 0.09%
  RT* (min.) 28.81 (HPLC peak): — (“—” refers to the peak area is less than 3000 or there is no peak)
  RT* (min.) 30.66 (HPLC peak): — (“—” refers to the peak area is less than 3000 or there is no peak)
[2]; [5]
  Appearance: White or off-
  Crystalline form: Form A
  RT* (min.) 2.39 (HPLC peak): — (“—” refers to the peak area is less than 3000 or there is no peak)
  RT* (min.) 2.89 (HPLC peak): 0.01%
  RT* (min.) 3.9 (HPLC peak): 0.32%
  RT* (min.) 5.79 (HPLC peak): — (“—” refers to the peak area is less than 3000 or there is no peak)
  RT* (min.) 13.2 (azilsartan peak, purity by HPLC): 99.51%
  RT* (min.) 20.55 (HPLC peak): — (“—” refers to the peak area is less than 3000 or there is no peak)
  RT* (min.) 22.8 (HPLC peak): 0.04%
  RT* (min.) 23.6 (HPLC peak): 0.01%
  RT* (min.) 26.96 (HPLC peak): — (“—” refers to the peak area is less than 3000 or there is no peak)
  RT* (min.) 27.5 (HPLC peak): 0.06%
  RT* (min.) 28.81 (HPLC peak): — (“—” refers to the peak area is less than 3000 or there is no peak)
  RT* (min.) 30.66 (HPLC peak): 0.02%
[2]; 60° C., 6 days
  Appearance: White or off-
  Crystalline form: Form A
  RT* (min.) 2.39 (HPLC peak): — (“—” refers to the peak area is less than 3000 or there is no peak)
  RT* (min.) 2.89 (HPLC peak): 0.02%
  RT* (min.) 3.9 (HPLC peak): 0.33%
  RT* (min.) 5.79 (HPLC peak): 0.01%
  RT* (min.) 13.2 (azilsartan peak, purity by HPLC): 99.47%
  RT* (min.) 20.55 (HPLC peak): 0.01%
  RT* (min.) 22.8 (HPLC peak): 0.04%
  RT* (min.) 23.6 (HPLC peak): 0.02%
  RT* (min.) 26.96 (HPLC peak): 0.01%
  RT* (min.) 27.5 (HPLC peak): 0.06%
  RT* (min.) 28.81 (HPLC peak): 0.01%
  RT* (min.) 30.66 (HPLC peak): 0.03%
[2]; 60° C., 11 days
  Appearance: White or off-
  Crystalline form: Form A
  RT* (min.) 2.39 (HPLC peak): — (“—” refers to the peak area is less than 3000 or there is no peak)
  RT* (min.) 2.89 (HPLC peak): 0.01%
  RT* (min.) 3.9 (HPLC peak): 0.35%
  RT* (min.) 5.79 (HPLC peak): — (“—” refers to the peak area is less than 3000 or there is no peak)
  RT* (min.) 13.2 (azilsartan peak, purity by HPLC): 99.48%
  RT* (min.) 20.55 (HPLC peak): 0.02%
  RT* (min.) 22.8 (HPLC peak): 0.04%
  RT* (min.) 23.6 (HPLC peak): 0.02%
  RT* (min.) 26.96 (HPLC peak): — (“—” refers to the peak area is less than 3000 or there is no peak)
  RT* (min.) 27.5 (HPLC peak): 0.07%
  RT* (min.) 28.81 (HPLC peak): — (“—” refers to the peak area is less than 3000 or there is no peak)
  RT* (min.) 30.66 (HPLC peak): 0.02%
[2]; 60° C., 16 days
  Appearance: White or off-
  Crystalline form: Form A
  RT* (min.) 2.39 (HPLC peak): — (“—” refers to the peak area is less than 3000 or there is no peak)
  RT* (min.) 2.89 (HPLC peak): 0.01%
  RT* (min.) 3.9 (HPLC peak): 0.35%
  RT* (min.) 5.79 (HPLC peak): — (“—” refers to the peak area is less than 3000 or there is no peak)
  RT* (min.) 13.2 (azilsartan peak, purity by HPLC): 99.47%
  RT* (min.) 20.55 (HPLC peak): 0.02%
  RT* (min.) 22.8 (HPLC peak): 0.04%
  RT* (min.) 23.6 (HPLC peak): 0.02%
  RT* (min.) 26.96 (HPLC peak): — (“—” refers to the peak area is less than 3000 or there is no peak)
  RT* (min.) 27.5 (HPLC peak): 0.07%
  RT* (min.) 28.81 (HPLC peak): — (“—” refers to the peak area is less than 3000 or there is no peak)
  RT* (min.) 30.66 (HPLC peak): 0.02%
[3]; 6 days
  Appearance: White or off-
  Crystalline form: Form A
  RT* (min.) 2.39 (HPLC peak): — (“—” refers to the peak area is less than 3000 or there is no peak)
  RT* (min.) 2.89 (HPLC peak): 0.02%
  RT* (min.) 3.9 (HPLC peak): 0.31%
  RT* (min.) 5.79 (HPLC peak): 0.01
  RT* (min.) 13.2 (azilsartan peak, purity by HPLC): 99.48%
  RT* (min.) 20.55 (HPLC peak): — (“—” refers to the peak area is less than 3000 or there is no peak)
  RT* (min.) 22.8 (HPLC peak): 0.05%
  RT* (min.) 23.6 (HPLC peak): 0.02%
  RT* (min.) 26.96 (HPLC peak): — (“—” refers to the peak area is less than 3000 or there is no peak)
  RT* (min.) 27.5 (HPLC peak): 0.07%
  RT* (min.) 28.81 (HPLC peak): — (“—” refers to the peak area is less than 3000 or there is no peak)
  RT* (min.) 30.66 (HPLC peak): 0.03%
[3]; 11 days
  Appearance: White or off-
  Crystalline form: Form A
  RT* (min.) 2.39 (HPLC peak): — (“—” refers to the peak area is less than 3000 or there is no peak)
  RT* (min.) 2.89 (HPLC peak): 0.02%
  RT* (min.) 3.9 (HPLC peak): 0.33%
  RT* (min.) 5.79 (HPLC peak): — (“—” refers to the peak area is less than 3000 or there is no peak)
  RT* (min.) 13.2 (azilsartan peak, purity by HPLC): 99.51%
  RT* (min.) 20.55 (HPLC peak): — (“—” refers to the peak area is less than 3000 or there is no peak)
  RT* (min.) 22.8 (HPLC peak): 0.04%
  RT* (min.) 23.6 (HPLC peak): 0.02%
  RT* (min.) 26.96 (HPLC peak): — (“—” refers to the peak area is less than 3000 or there is no peak)
  RT* (min.) 27.5 (HPLC peak): 0.06%
  RT* (min.) 28.81 (HPLC peak): — (“—” refers to the peak area is less than 3000 or there is no peak)
  RT* (min.) 30.66 (HPLC peak): 0.03%
[3]; 16 days
  Appearance: White or off-
  Crystalline form: Form A
  RT* (min.) 2.39 (HPLC peak): — (“—” refers to the peak area is less than 3000 or there is no peak)
  RT* (min.) 2.89 (HPLC peak): 0.01%
  RT* (min.) 3.9 (HPLC peak): 0.32%
  RT* (min.) 5.79 (HPLC peak): — (“—” refers to the peak area is less than 3000 or there is no peak)
  RT* (min.) 13.2 (azilsartan peak, purity by HPLC): 99.52%
  RT* (min.) 20.55 (HPLC peak): — (“—” refers to the peak area is less than 3000 or there is no peak)
  RT* (min.) 22.8 (HPLC peak): 0.04%
  RT* (min.) 23.6 (HPLC peak): 0.01%
  RT* (min.) 26.96 (HPLC peak): — (“—” refers to the peak area is less than 3000 or there is no peak)
  RT* (min.) 27.5 (HPLC peak): 0.05%
  RT* (min.) 28.81 (HPLC peak): — (“—” refers to the peak area is less than 3000 or there is no peak)
  RT* (min.) 30.66 (HPLC peak): 0.02%
[4]
  solubility: very soluble
